US9416128B2, “Fused heterocyclic compounds as ion channel modulators” (Gilead Sciences, Inc., priority 2013, dated 2016)
Where two headings read alike, the source gives them in different places.

How the values were obtained:
hNaV1.1 (SCN1A) = hNaV1.1 (SCN1A) (Homo sapiens, UniProt P35498); assay: Use-dependent inhibition of the CNS NaV1.1 sodium channel; assay type: cell-based; settings: % inhibition; for inhibition at 1 µM / inhibition at 10 µM: 25 Hz; for inhibition at 1 µM: read-out: Nav1.1 UDB 25 Hz 1 uM; for inhibition at 10 µM: read-out: Nav1.1 UDB 25 Hz 10 uM
Protocol: HEK-293 cells stably expressing wild-type (WT) hNaV1.1 (SCN1A, NCBI# AB09354) were obtained from Millipore (Cat. # CYL3009) were used to record INa. Cells are maintained with standard tissue culture procedures and stable channel expression is maintained with 400 ug/mL G418 in the culture medium. Unless otherwise noted, all reagents are purchased from Sigma-Aldrich (St Louis, Mo., U.S.A.).
Assays measuring Use-Dependent Block (UDB) of NaV1.2 are performed on an automated electrophysiology platform, QPatch 16X or QPatch HT (Sophion Bioscience, Copenhagen, Denmark), using the whole cell patch clamp technique to measure currents through the cell membrane. Series resistance compensation is set to 100% and series resistance and whole-cell compensation are performed automatically. Currents stored in the Sophion Bioscience Oracle database (Sophion Bioscience, Copenhagen, Denmark). Analysis is performed using QPatch Assay software and data are compiled in Excel 2010 (Microsoft, Seattle, Wash., U.S.A.).
The internal (pipette) solution consists of (in mM) 105 CsF, 10 NaF, 20 CsCl, 2 EGTA, 10 HEPES, 10 Dextrose with a pH of 7.35 and osmolarity of 300 mOsmol/kg. The external (bath) solution contains in (mM): 145 NaCl, 4 KCl, 1.8 CaCl2, 1 MgCl2, 10 dextrose, 10 HEPES, with a pH of 7.35 and osmolarity of 310 mOsmol/kg. Experiments are carried out at 23-25° C.
Compound stocks are routinely made by the Gilead Sample Bank in vials to 10 mM in dimethyl sulfoxide (DMSO). In some cases, when compounds are not soluble in DMSO, they are made in 100% ethanol. Stocks are sonicated as necessary. […]
Cells are allowed to stabilize for 10 min after establishment of the whole-cell configuration before current is measured. The test compound is applied 2 times at 60 second intervals. After the second compound addition, a 200 second wait period was imposed to allow for equilibration.
Leak currents are subtracted by using an online P/4 procedure and all currents are low-pass Bessel filtered at 5 kHz and digitized at […].
Use-dependent block of NaV1.2 peak current is measured during pulse number 20 of a voltage pulse train (0 mV, 20 ms, 20 pulses, 25 Hz) from a holding potential of −120 mV. Currents are normalized to the peak current recorded in response to the first pulse in each frequency train. The voltage protocol for UDB was performed in the absence and presence of compound and percentage inhibition was calculated with respect to the compound free condition. Results are presented as mean percentage inhibition and data analysis is performed using QPatch Assay Software 4.0, and Excel 2002 (Microsoft, Seattle, Wash., U.S.A.).

[1] = target: wild-type human cardiac sodium channel, hNaV 1.5 (Peak INa) (Homo sapiens, UniProt Q14524); assay: Peak INa screening assay (tonic block and use-dependent block); assay type: cell-based
Protocol: The assay uses an HEK293 (human embryonic kidney) cell line heterologously expressing the wild-type human cardiac sodium channel, hNaV 1.5, purchased from Millipore (Billerica, Mass.). No beta subunits were coexpressed with the Na channel alpha subunit. Cells are maintained with standard tissue culture procedures and stable channel expression is maintained with 400 μg/mL Geneticin in the culture medium. […] Currents are digitized at 25 kHz and low-pass filtered at 5 kHz and stored in the Sophion Bioscience Oracle database (Sophion Bioscience, Copenhagen, Denmark). Analysis is performed using QPatch Assay software and data are compiled in Excel 2010 (Microsoft, Seattle, Wash., U.S.A.). Compound stocks are routinely made by the Gilead Sample Bank in vials to 10 mM in dimethyl sulfoxide (DMSO). In some cases, when compounds are not soluble in DMSO, they are made in 100% ethanol. Stocks are sonicated as necessary. The extracellular solution for screening Late INa is composed of: 140 mM NaCl, 4 mM KCl, 1.8 mM CaCl2, 1 mM MgCl2, 10 mM HEPES and 10 mM Dextrose with pH adjusted to 7.35 using NaOH. The intracellular solution contains: 105 mM CsF, 20 mM CsCl, 10 NaF, 2 mM EGTA, 10 mM HEPES and 10 mM Dextrose with pH adjusted to 7.35 with CsOH. Compounds are diluted in extracellular solution using a MicroLab Nimbus (Hamilton Robotics, Reno, Nev.) to between 0.3 and 3 μM in glass vials and transferred to glass well plates before robotic addition to the cells. […] It is contemplated that the compounds of Formula I avoid significant block of peak INa. […] The intracellular solution used for the Peak INa assay is the same as outlined for the Late INa assay (see above). After establishing the whole cell recording configuration, channels were stimulated to open with low frequency (0.1 Hz) for so that the recording can be monitored and the extent to which the recording has stabilized can be assessed. The test compound is then applied at 1 or 3 μM was added 2 times at 60 second intervals. After the second compound addition, a 200 second wait period was imposed to allow for equilibration. Voltage protocols for TB and UDB are were performed in the absence and presence of compound and TB and UDB are calculated with respect to the compound free condition. Both TB and UDB were analyzed by incorporating rundown correction for the peak INa.

[2] = % inhibition, use-dependent block of peak INa at 3 uM, 3 Hz, pulse 50, read-out: Nav1.5 Peak UDB 3 Hz 3 uM
[3] = read-out: Nav1.5 Peak TB 3 uM, % inhibition, tonic block of peak INa at 3 uM, 0.1 Hz, holding -100 mV

Sequence of wild-type human cardiac sodium channel, hNaV 1.5 (Peak INa) (Q14524 whole entry): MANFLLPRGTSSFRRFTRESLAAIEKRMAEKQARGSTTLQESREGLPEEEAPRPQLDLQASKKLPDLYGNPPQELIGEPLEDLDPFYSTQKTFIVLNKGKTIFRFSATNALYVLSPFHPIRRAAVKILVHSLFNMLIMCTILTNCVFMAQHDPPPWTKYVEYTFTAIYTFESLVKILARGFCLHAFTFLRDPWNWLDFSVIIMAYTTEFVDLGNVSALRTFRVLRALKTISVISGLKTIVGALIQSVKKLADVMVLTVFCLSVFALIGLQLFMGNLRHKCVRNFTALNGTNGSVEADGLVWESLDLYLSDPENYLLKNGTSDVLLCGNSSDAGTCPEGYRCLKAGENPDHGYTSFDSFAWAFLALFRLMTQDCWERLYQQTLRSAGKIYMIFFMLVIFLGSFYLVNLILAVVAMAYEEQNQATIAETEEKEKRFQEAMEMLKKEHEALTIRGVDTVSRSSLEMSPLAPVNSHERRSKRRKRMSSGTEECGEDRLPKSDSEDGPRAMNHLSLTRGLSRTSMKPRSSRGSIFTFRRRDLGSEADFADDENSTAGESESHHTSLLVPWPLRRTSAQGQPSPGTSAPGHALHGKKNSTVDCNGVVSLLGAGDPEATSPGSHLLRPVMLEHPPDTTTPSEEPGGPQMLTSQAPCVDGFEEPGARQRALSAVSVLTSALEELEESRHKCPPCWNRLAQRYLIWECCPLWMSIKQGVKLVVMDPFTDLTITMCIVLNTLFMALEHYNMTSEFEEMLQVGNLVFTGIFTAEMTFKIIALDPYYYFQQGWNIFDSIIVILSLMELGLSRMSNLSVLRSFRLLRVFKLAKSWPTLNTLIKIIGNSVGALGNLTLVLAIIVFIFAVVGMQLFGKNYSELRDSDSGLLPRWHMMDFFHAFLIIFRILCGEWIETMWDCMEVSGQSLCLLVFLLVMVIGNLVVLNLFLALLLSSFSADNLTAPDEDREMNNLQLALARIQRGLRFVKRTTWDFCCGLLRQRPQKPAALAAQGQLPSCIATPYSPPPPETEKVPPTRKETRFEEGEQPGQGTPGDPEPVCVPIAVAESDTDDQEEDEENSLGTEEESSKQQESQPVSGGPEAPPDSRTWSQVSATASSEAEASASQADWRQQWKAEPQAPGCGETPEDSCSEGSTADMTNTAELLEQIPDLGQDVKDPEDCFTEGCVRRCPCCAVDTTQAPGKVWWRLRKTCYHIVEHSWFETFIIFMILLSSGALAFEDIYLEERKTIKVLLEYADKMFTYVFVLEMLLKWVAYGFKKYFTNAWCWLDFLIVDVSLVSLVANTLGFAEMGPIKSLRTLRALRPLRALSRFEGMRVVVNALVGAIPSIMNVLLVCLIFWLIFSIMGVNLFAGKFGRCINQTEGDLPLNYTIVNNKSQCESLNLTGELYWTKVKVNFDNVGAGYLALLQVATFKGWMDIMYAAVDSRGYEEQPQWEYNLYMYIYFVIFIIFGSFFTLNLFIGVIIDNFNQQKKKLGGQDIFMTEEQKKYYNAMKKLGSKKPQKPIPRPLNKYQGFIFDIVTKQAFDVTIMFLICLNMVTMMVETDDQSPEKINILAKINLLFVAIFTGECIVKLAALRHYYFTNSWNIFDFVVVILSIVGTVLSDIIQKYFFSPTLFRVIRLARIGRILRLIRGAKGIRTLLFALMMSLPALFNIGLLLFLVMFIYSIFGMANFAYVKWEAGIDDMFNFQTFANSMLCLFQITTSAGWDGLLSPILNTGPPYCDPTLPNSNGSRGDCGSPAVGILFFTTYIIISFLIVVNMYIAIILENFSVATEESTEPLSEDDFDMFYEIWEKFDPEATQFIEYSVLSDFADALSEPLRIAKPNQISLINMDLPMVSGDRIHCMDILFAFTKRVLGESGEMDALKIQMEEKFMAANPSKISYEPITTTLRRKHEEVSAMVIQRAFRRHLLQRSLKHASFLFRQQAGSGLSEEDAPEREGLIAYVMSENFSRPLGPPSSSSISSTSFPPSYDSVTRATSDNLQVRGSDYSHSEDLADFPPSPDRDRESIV

| SMILES | Nav1.1 UDB 25 Hz 1 uM (hNaV1.1 (SCN1A); use-dependent block at 1 uM) [%] | Nav1.1 UDB 25 Hz 10 uM (hNaV1.1 (SCN1A); use-dependent block at 10 uM) [%] | inhibition at 3 µM [1, 2] [%] | inhibition at 3 µM [1, 3] [%] | inhibition at 1 µM (hNaV1.1 (SCN1A); use-dependent block at 1 uM) [%] | inhibition at 10 µM (hNaV1.1 (SCN1A); use-dependent block at 10 uM) [%] | Nav1.5 Peak TB 3 uM ([1]; % inhibition, tonic block of peak INa at 3 uM, 0.1 Hz, holding -100 mV) [%] | Nav1.5 Peak UDB 3 Hz 3 uM ([1]; % inhibition, use-dependent block of peak INa at 3 uM, 3 Hz, pulse 50) [%] |
| --- | --- | --- | --- | --- | --- | --- | --- | --- |
| COc1cc(OC(F)(F)F)ccc1-c1ccc2c(c1)CN(Cc1ncccn1)C(=O)O2 [Example 1, 6-(2-methoxy-4-(trifluoromethoxy)phenyl)-3-(pyrimidin-2-ylmethyl)-3,4-dihydro-2H-benzo[e][1,3]oxazin-2-one] | <5 | 34.4 | 9.6 | 26.7 | – | – | – | – |
| O=C1Oc2ccc(-c3ccc(C(F)(F)F)cc3)cc2CN1Cc1ccncc1 [Example 2, 3-(pyridin-4-ylmethyl)-6-(4-(trifluoromethyl)phenyl)-3,4-dihydro-2H-benzo[e][1,3]oxazin-2-one] | – | – | 16.2 | 18.5 | 9.7 | 22.6 | – | – |
| Cc1cc(-c2ccc3c(c2)CN(Cc2ncccn2)C(=O)O3)ccc1OC(F)(F)F [Example 5, 6-(3-methyl-4-(trifluoromethoxy)phenyl)-3-(pyrimidin-2-ylmethyl)-3,4-dihydro-2H-benzo[e][1,3]oxazin-2-one] | – | – | < 5 | 10.1 | < 5 | 15.3 | – | – |
| O=C1Oc2ccc(-c3ccc(Cl)c(F)c3)cc2CN1Cc1ncccn1 [Example 6, 6-(4-chloro-3-fluorophenyl)-3-(pyrimidin-2-ylmethyl)-3,4-dihydro-2H-benzo[e][1,3]oxazin-2-one] | – | – | < 5 | 19.9 | 26.7 | 65.2 | – | – |
| O=C1Oc2ccc(-c3ccc(OC(F)(F)F)cc3F)cc2CN1Cc1ncccn1 [Example 7, 6-(2-fluoro-4-(trifluoromethoxy)phenyl)-3-(pyrimidin-2-ylmethyl)-3,4-dihydro-2H-benzo[e][1,3]oxazin-2-one] | – | – | < 5 | 14.9 | 5.7 | 42.4 | – | – |
| Cc1cc(OC(F)(F)F)ccc1-c1ccc2c(c1)CN(Cc1ncccn1)C(=O)O2 [Example 8, 6-(2-methyl-4-(trifluoromethoxy)phenyl)-3-(pyrimidin-2-ylmethyl)-3,4-dihydro-2H-benzo[e][1,3]oxazin-2-one] | – | – | < 5 | 12.5 | < 5 | 11.6 | – | – |
| COc1cc(OC(F)(F)F)ccc1-c1ccc2c(c1)CN(Cc1ncccn1)C(=O)O2 [Example 9, 6-(2-methoxy-4-(trifluoromethoxy)phenyl)-3-(pyrimidin-2-ylmethyl)-3,4-dihydro-2H-benzo[e][1,3]oxazin-2-one] | – | – | – | – | < 5 | 34.4 | 18.9 | <5 |
| O=C1Oc2ccc(-c3ccc(OC(F)(F)F)c(F)c3)cc2CN1Cc1ncccn1 [Example 10, 6-(3-fluoro-4-(trifluoromethoxy)phenyl)-3-(pyrimidin-2-ylmethyl)-3,4-dihydro-2H-benzo[e][1,3]oxazin-2-one] | – | – | 10.8 | 14.2 | 35 | 75.9 | – | – |
| CC1c2cc(-c3ccc(Cl)c(F)c3)ccc2OC(=O)N1Cc1ncccn1 (stereo not shown) [Example 11, 6-(4-chloro-3-fluorophenyl)-4-methyl-3-(pyrimidin-2-ylmethyl)-3,4-dihydro-2H-benzo[e][1,3]oxazin-2-one] | – | – | 5.6 | 19.4 | 21 | 81.1 | – | – |
| Cc1cnc(CN2Cc3cc(-c4ccc(OC(F)(F)F)cc4)ccc3OC2=O)nc1 [Example 12, 3-((5-methylpyrimidin-2-yl)methyl)-6-(4-(trifluoromethoxy)phenyl)-3,4-dihydro-2H-benzo[e][1,3]oxazin-2-one] | – | – | < 5 | 16.6 | 7.5 | 73.9 | – | – |
| Cc1cnc(CN2Cc3cc(-c4ccc(C(F)(F)F)cc4)ccc3OC2=O)nc1 [Example 13, 3-((5-methylpyrimidin-2-yl)methyl)-6-(4-(trifluoromethyl)phenyl)-3,4-dihydro-2H-benzo[e][1,3]oxazin-2-one] | – | – | 5.6 | 29.4 | 37.5 | 88.8 | – | – |
| Cc1cnc(CN2Cc3cc(-c4ccc(OC(F)(F)F)cc4F)ccc3OC2=O)nc1 [Example 14, 6-(2-fluoro-4-(trifluoromethoxy)phenyl)-3-((5-methylpyrimidin-2-yl)methyl)-3,4-dihydro-2H-benzo[e][1,3]oxazin-2-one] | – | – | < 5 | 24 | < 5 | 43.8 | – | – |
| O=C1Oc2ccc(-c3ccc(OC(F)(F)F)cc3)cc2CN1CCc1ncccn1 [Example 16, 3-(2-(pyrimidin-2-yl)ethyl)-6-(4-(trifluoromethoxy)phenyl)-3,4-dihydro-2H-benzo[e][1,3]oxazin-2-one] | – | – | 5.3 | 22.1 | 17.3 | 52.2 | – | – |
| O=C1Oc2ccc(-c3ccc(C(F)(F)F)cc3)cc2CN1CCc1ncccn1 [Example 17, 3-(2-(pyrimidin-2-yl)ethyl)-6-(4-(trifluoromethyl)phenyl)-3,4-dihydro-2H-benzo[e][1,3]oxazin-2-one] | – | – | < 5 | 12.9 | 34.8 | 60.9 | – | – |
| COc1cc(OC(F)(F)F)ccc1-c1ccc2c(c1)CN(CCc1ncccn1)C(=O)O2 [Example 18, 6-(2-methoxy-4-(trifluoromethoxy)phenyl)-3-(2-(pyrimidin-2-yl)ethyl)-3,4-dihydro-2H-benzo[e][1,3]oxazin-2-one] | – | – | < 5 | 12.1 | 16.9 | 73.4 | – | – |
| CCCOc1cc(C(F)(F)F)ccc1-c1ccc2c(c1)CN(CCc1ncccn1)C(=O)O2 [Example 19, 6-(2-propoxy-4-(trifluoromethyl)phenyl)-3-(2-(pyrimidin-2-yl)ethyl)-3,4-dihydro-2H-benzo[e][1,3]oxazin-2-one] | – | – | 9.6 | 26.7 | 30.8 | 78.4 | – | – |
